Patent US20090312396A1, “METHODS FOR CANCER TREATMENT USING TAK1 INHIBITORS” (AstraZeneca AB, priority 2006, published 2009)

Tests used:
Assay in all cases: AlamarBlue proliferation assay, GI50
Type in all cases: cell-based
[1] = system: AM0-1; conditions: Homo sapiens, 72 hours, Table 5, read-out: GI50 AM0-1 plasmacytoma
Description: (§1) The TAK1 inhibitors are known in the art (see for example, WO 2003010158, WO 2003010163 and WO2004063186 the disclosures of which are incorporated by reference herein). All cell lines were plated at 10,000 cells/well in flat-bottomed 96 well plates and dosed with test compounds in triplicate over a 10 point dosing range from 0 to 30 μmolesL^−1. All cell lines were incubated with test compounds for a total of 72 hours. Background levels were determined for a control (undosed) plate within 2 hours of dosing test compounds. Following the dosing period, the extent of proliferation was measured by adding 1/10 (vol/vol) AlamarBlue reagent to every well and incubating the plates for a further 4 hours. The reaction was stopped by the addition of SDS to a final concentration of 0.1%. Fluorescence was measured at 545 nm (excitation) and 600 nm (emission). Growth inhibition 50 (GI50) values were determined for each test compound across the panel.
(§2) The experiments to generate the results for both Tables 5 and 6 were performed as described above.

[2] = system: DERL 2; conditions: Homo sapiens, T-cell, 72 hours, Table 6, read-out: GI50 DERL 2 T cell lymphoma
Description: as §1, §2

[3] = system: JEKO-1; conditions: Homo sapiens, 72 hours, Table 6, read-out: GI50 JEKO-1 MCL
Description: as §1, §2

[4] = system: JVM-3; conditions: Homo sapiens, 72 hours, Table 6, read-out: GI50 JVM-3 B-PLL
Description: as §1, §2

[5] = system: KARPAS-620; conditions: Homo sapiens, 72 hours, Table 5, read-out: GI50 KARPAS-620 plasma cell leukemia
Description: as §1, §2

[6] = system: L-363; conditions: Homo sapiens, 72 hours, Table 5, read-out: GI50 L-363 plasma cell leukemia
Description: as §1, §2

[7] = system: NAMALWA; conditions: Homo sapiens, 72 hours, Table 6, read-out: GI50 NAMALWA Burkitts Lymphoma
Description: as §1, §2

[8] = system: RPMI-8226; conditions: Homo sapiens, 72 hours, Table 5, read-out: GI50 RPMI-8226 Multiple myeloma
Description: as §1, §2

[9] = system: Ramos; conditions: Homo sapiens, 72 hours, Table 6, read-out: GI50 Ramos Burkitts Lymphoma
Description: as §1, §2

[10] = system: WSU DLCL2; conditions: Homo sapiens, WSUDLCL2, 72 hours, Table 6, read-out: GI50 WSU DLCL2 B cell lymphoma
Description: as §1, §2

GI50 [5]: 140 nM
GI50 [8]: 1600 nM
GI50 [9]: 210 nM
Structure (SMILES): COC(C)(C)CNCc1ccc(-c2cc(NC(N)=O)c(C(N)=O)s2)cc1 [Compound 4, 3-[(aminocarbonyl)amino]-5-(4-{[(2-methoxy-2-methylpropyl)amino]methyl}phenyl)thiophene-2-carboxamide]
GI50 [1]: 910 nM
GI50 [2]: 310 nM
GI50 [3]: 290 nM
GI50 [4]: 140 nM
GI50 [6]: 350 nM
GI50 [7]: 2960 nM
GI50 [10]: 1950 nM
